Assays:
Format in all cases: cell-based, human
[1] = tested on: 786-O; test: ATP luminescence proliferation assay, 786-O
Method: (§1) This example generally describes the procedures used to assay the antiproliferative activity of compounds of this invention or their conjugates. Human tumor cell lines were obtained from the American Type Culture Collection (ATCC), P.O. Box 1549, Manassas, Va. 20108, USA, and cultured according to instruction from the ATCC. Cells were seeded at 1.0×10^3 or 1.0×10^4 cells/well in 96-well plates for 3 h for ATP assays or ^3H thymidine assays, respectively. 1:3 serial dilutions of free (unconjugated) compounds or their conjugates were added to the wells. Plates were allowed to incubate for 24 to 72 h. The ^3H thymidine plates were pulsed with 1.0 μCi of ^3H-thymidine per well for the last 24 hours of the total incubation period, harvested, and read on a Top Count Scintillation Counter (Packard Instruments, Meriden, Conn.). ATP levels in the ATP plates were measured using the […]-GLO® Luminescent Cell Viability kit following the manufacturer's manual and read on a GLOMAX® 20/20 luminometer (both from Promega, Madison, Wis., USA). The EC50 values—the concentration at which an agent inhibits or reduces cell proliferation by 50% —were determined using PRISM™ software, version 4.0 (GraphPad Software, La Jolla, Calif., USA).
(§2) Using the ^3H thymidine or the ATP luminescence assay, or both, the activities of compounds of this invention were assayed against the following cancer cell lines: HCT-15 (colorectal cancer, multi-drug resistant (MDR)); Hep3B (liver cancer); LNCaP (prostate cancer, androgen receptor positive (AR^+)); MDA-MB-231 (breast cancer, estrogen receptor, progesterone receptor, and Her2 negative (triple negative)); A2058 (melanoma); U-87 MG (glioblastoma); NCI-H460 (NSCLC); A549 (NSCLC); HPAC (pancreatic cancer, primary); PC3 (prostate cancer, AR); BT474 (breast cancer, Her2 highly positive (Her2hi)); SKOV3 (ovarian cancer, Her2hi); 786-O (renal cancer); UO-31 (renal cancer, MDR); NCI-H740 (SCLC); DMS53 (SCLC); SK-BR3 (breast cancer, Her2hi); ZR-75 (breast cancer, estrogen receptor positive); OVCAR3 (ovarian cancer); HL-60 (APL); OVCAR8/Adr (ovarian cancer, MDR); CEM-Cl (ALL); Nomo-1 (AML); RPMI-8226 (MM)); Raji (lymphoma); SW-480 (colorectal cancer, metastatic); SW-620 (colorectal cancer); and H226 (lung cancer). (Not all compounds were assayed against all cell lines.)
(§3) FIGS. 12a and 12b show illustrative plots for ATP luminescence proliferation assays for a second set of compounds of this invention, against HL-60 and 786-O cells, respectively, with an incubation period of 72 h. FIGS. 12c and 12d show the plots for ^3H thymidine proliferation assays for the same set of compounds, again against HL-60 and 786-O cells, respectively, with a 72 h incubation period. In each instance, doxorubicin was used as a comparative compound.
(§4) Table 3 provides the data for the ATP luminescence proliferation assays, with an incubation period of 48, 72, or 96 h, as noted.

[2] = tested on: 786-O; test: 3H thymidine proliferation assay, 786-O; conditions: Homo sapiens, 786-0, read-out: EC50, 786-O, 3H thymidine method, 72 h incubation
Method: as §1, §2
(§5) Table 2 provides the data for proliferation assays using the ^3H thymidine method, with an incubation period of 72 h.

[3] = tested on: HL-60; test: 3H thymidine proliferation assay, HL-60; conditions: Homo sapiens, HL-60, read-out: EC50, HL-60, 3H thymidine method, 72 h incubation
Method: as §1, §2, §5

[4] = tested on: HL-60; test: ATP luminescence proliferation assay, HL-60
Method: as §1, §2, §3, §4

[5] = tested on: UO-31; test: 3H thymidine proliferation assay, UO-31; conditions: Homo sapiens, UO-31, read-out: EC50, UO-31, 3H thymidine method, 72 h incubation
Method: as §1, §2, §5

[6] = tested on: HCT-15; test: 3H thymidine proliferation assay, HCT-15; conditions: Homo sapiens, HCT-15, read-out: EC50, HCT-15, 3H thymidine method, 72 h incubation
Method: as §1, §2, §5

[7] = tested on: BT474; test: 3H thymidine proliferation assay, BT474; conditions: Homo sapiens, BT-474, read-out: EC50, BT474, 3H thymidine method, 72 h incubation
Method: as §1, §2, §5

[8] = tested on: SKOV3; test: 3H thymidine proliferation assay, SKOV3; conditions: Homo sapiens, SK-OV-3, read-out: EC50, SKOV3, 3H thymidine method, 72 h incubation
Method: as §1, §2, §5

[9] = tested on: U-87 MG; test: 3H thymidine proliferation assay, U-87 MG; conditions: Homo sapiens, U-87 MG, read-out: EC50, U-87 MG, 3H thymidine method, 72 h incubation
Method: as §1, §2, §5

[10] = tested on: A2058; test: 3H thymidine proliferation assay, A2058; conditions: Homo sapiens, A2058; 3H thymidine method, 72 h incubation
Method: as §1, §2, §5

[11] = tested on: RPMI-8226; test: 3H thymidine proliferation assay, RPMI-8226; conditions: Homo sapiens, RPMI-8226, read-out: EC50, RPMI-8226, 3H thymidine method, 72 h incubation
Method: as §1, §2, §5

[12] = tested on: PC3; test: 3H thymidine proliferation assay, PC3; conditions: Homo sapiens, PC-3, read-out: EC50, PC3, 3H thymidine method, 72 h incubation
Method: as §1, §2, §5

[13] = tested on: A549; test: 3H thymidine proliferation assay, A549; conditions: Homo sapiens, A549, read-out: EC50, A549, 3H thymidine method, 72 h incubation
Method: as §1, §2, §5

[14] = tested on: HPAC; test: 3H thymidine proliferation assay, HPAC; conditions: Homo sapiens, HPAC, read-out: EC50, HPAC, 3H thymidine method, 72 h incubation
Method: as §1, §2, §5

[15] = tested on: OVCAR3; test: 3H thymidine proliferation assay, OVCAR3; conditions: Homo sapiens, OVCAR-3, read-out: EC50, OVCAR3, 3H thymidine method, 72 h incubation
Method: as §1, §2, §5

[16] = tested on: MDA-MB-231; test: 3H thymidine proliferation assay, MDA-MB-231; conditions: Homo sapiens, MDA-MB-231, read-out: EC50, MDA-MB-231, 3H thymidine method, 72 h incubation
Method: as §1, §2, §5

[17] = tested on: Raji; test: 3H thymidine proliferation assay, Raji; conditions: Homo sapiens, Raji, read-out: EC50, Raji, 3H thymidine method, 72 h incubation
Method: as §1, §2, §5

[18] = tested on: SK-BR3; test: 3H thymidine proliferation assay, SK-BR3; conditions: Homo sapiens, SK-BR-3; 3H thymidine method, 72 h incubation
Method: as §1, §2, §5

[19] = tested on: Hep3B; test: 3H thymidine proliferation assay, Hep3B; conditions: Homo sapiens, Hep3B, read-out: EC50, Hep3B, 3H thymidine method, 72 h incubation
Method: as §1, §2, §5

[20] = tested on: OVCAR8; test: 3H thymidine proliferation assay, OVCAR8; conditions: Homo sapiens, OVCAR-8, read-out: EC50, OVCAR8, 3H thymidine method, 72 h incubation
Method: as §1, §2, §5

[21] = tested on: CEM-C1; test: 3H thymidine proliferation assay, CEM-C1; conditions: Homo sapiens, CEM/C1, read-out: EC50, CEM-C1, 3H thymidine method, 72 h incubation
Method: as §1, §2, §5

[22] = tested on: LNCaP; test: 3H thymidine proliferation assay, LNCaP; conditions: Homo sapiens, LNCaP, read-out: EC50, LNCaP, 3H thymidine method, 72 h incubation
Method: as §1, §2, §5

[23] = tested on: ZR-75; test: 3H thymidine proliferation assay, ZR-75; conditions: Homo sapiens, ZR75, read-out: EC50, ZR-75, 3H thymidine method, 72 h incubation
Method: as §1, §2, §5

[24] = tested on: NCI-H460; test: 3H thymidine proliferation assay, NCI-H460; conditions: Homo sapiens, NCI-H460, read-out: EC50, NCI-H460, 3H thymidine method, 72 h incubation
Method: as §1, §2, §5

[25] = tested on: DMS53; test: 3H thymidine proliferation assay, DMS53; conditions: Homo sapiens, DMS-53, read-out: EC50, DMS53, 3H thymidine method, 72 h incubation
Method: as §1, §2, §5

[26] = tested on: Nomo-1; test: 3H thymidine proliferation assay, Nomo-1; conditions: Homo sapiens, NOMO-1, read-out: EC50, Nomo-1, 3H thymidine method, 72 h incubation
Method: as §1, §2, §5

[27] = tested on: H740; test: 3H thymidine proliferation assay, H740; conditions: Homo sapiens, read-out: EC50, H740, 3H thymidine method, 72 h incubation
Method: as §1, §2, §5

[28] = tested on: OVCAR8/Adr; test: ATP luminescence proliferation assay, OVCAR8/Adr; conditions: 48 h incubation period, read-out: EC50 against the OVACAR8/Adr cell line
Method: as §1, §2, §4

[29] = tested on: H226; test: ATP luminescence proliferation assay, H226; conditions: 72 h incubation period, read-out: EC50 against the H226 cell line
Method: as §1, with “The EC50 values—the concentration at which an agent inhibits or reduces cell proliferation by 50% —were determined using PRISM™ software, version 4.0 (GraphPad Software, La Jolla, Calif., USA).” left out
as §2, with “(Not all compounds were assayed against all cell lines.)” left out

[30] = tested on: HCT-15; test: ATP luminescence proliferation assay, HCT-15; conditions: ATP luminescence, HCT-15, 72 h incubation; read-out: EC50 HCT-15 (72 h)
Method: as §1, §2, §4

[31] = tested on: OVCAR3; test: ATP luminescence proliferation assay, OVCAR3; conditions: ATP luminescence, OVCAR3, 48 h incubation; read-out: EC50 OVCAR3 (48 h)
Method: as §1, §2, §4

[32] = ATP luminescence, HL-60, 48 h incubation, read-out: EC50 HL-60 (48 h)

SMILES: CC[C@H](C)[C@H](NC(=O)[C@H]1CCCCN1C)C(=O)N(COC)[C@H](C[C@@H](OC(C)=O)c1nc(C(=O)N[C@@H](Cc2ccccc2)C(=O)OC)cs1)C(C)C [(III-q)]
- EC50 ([1]; Homo sapiens, 786-0, 72 h, read-out: EC50 786-O (72 h), ATP luminescence, 786-O, 72 h incubation): 104 nM
- EC50 [2]: 7.61 nM
- EC50 [3]: 15.1 nM
- EC50 ([4]; Homo sapiens, HL-60, 72 h, read-out: EC50 HL-60 (72 h), ATP luminescence, HL-60, 72 h incubation): 14.3 nM

SMILES: CC[C@H](C)[C@H](NC(=O)[C@H]1CCCCN1C)C(=O)N(C)[C@H](C[C@@H](OC)c1nc(C(=O)N[C@@H](C)C(=O)N[C@@H](Cc2ccccc2)C(=O)OC)cs1)C(C)C [Compound 26a]
- EC50 [5]: > 100 nM
- EC50 [6]: > 100 nM
- EC50 [7]: 7 nM
- EC50 [8]: 47 nM
- EC50 [9]: 71 nM
- EC50 [10]: > 100 nM
- EC50 [11]: 22 nM
- EC50 [12]: > 100 nM
- EC50 [2]: > 100 nM
- EC50 [13]: > 100 nM
- EC50 [14]: > 100 nM
- EC50 [15]: 21 nM
- EC50 [16]: > 100 nM
- EC50 [17]: 20 nM
- EC50 [3]: 10 nM
- EC50 [18]: 158 nM
- EC50 [19]: 36 nM
- EC50 [20]: 100 nM
- EC50 [21]: 10 nM
- EC50 [22]: 80 nM
- EC50 [23]: 56 nM
- EC50 [24]: > 100 nM
- EC50 [25]: > 100 nM
- EC50 [26]: 2 nM
- EC50 [27]: 3.2 nM

SMILES: CC[C@H](C)[C@H](NC(=O)[C@H]1CCCCN1C)C(=O)N(C)[C@H](C[C@@H](OC(C)=O)c1nc(C(=O)N[C@@H](Cc2ccc(N)cc2)CC(C)C(=O)OC)cs1)C(C)C (some centres unmarked) [Compound 36a]
- EC50 ([1]; ATP luminescence, 786-O, 72 h incubation, read-out: EC50 786-O (72 h)): 0.434 nM
- EC50 [28]: 17.1 nM
- EC50 [4, 32]: 0.048 nM
- EC50 [29]: 0.307 nM

SMILES: CC[C@H](C)[C@H](NC(=O)[C@H]1CCCCN1C)C(=O)N(C)[C@H](C[C@@H](OC(C)=O)c1nc(C(=O)N[C@@H](Cc2ccc(N)cc2)C[C@H](C)C(=O)O)cs1)C(C)C [Compound 84a]
- EC50 ([1]; ATP luminescence, 786-O, 48 h incubation, read-out: EC50 786-O (48 h)): 6.12 nM
- EC50 [30]: 138 nM
- EC50 [28]: > 300 nM
- EC50 [31]: 8.19 nM
- EC50 [4, 32]: 10 to 28 nM
